Experimental data: PubChem BioAssay AID2060605 (Molecular Pharmacology Branch, DTP, NCI, 2025)

Test system: 947758-054-R-J2-PDC spheroid growth, percent test/control
Assay: Anticancer human tumor 947758-054-R-J2-PDC patient-derived colon adenocarcinoma cell line growth inhibition [CLK]
Conditions: spheroids with HUVEC and MSC; for IC50: curve of first compound; for viability, T/C: stronger effect = lower value
In short: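 Patient-derived tumor cells grown as complex spheroids with HUVEC endothelial cells and mesenchymal stem cells, treated with drug combinations. Concentrations descend in half-log steps from near clinical Cmax, or from 10 microM if Cmax unknown.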
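Note: spheroids exposed to compounds for one week before readout.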
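Throughout, for viability, T/C: 100% = DMSO vehicle control wells.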

- IC50 (second compound 0.0316 µM): 18.1 nM
- IC50 (second compound 0.1 µM): 14.7 nM
- IC50 (second compound 0.316 µM): 7.81 nM
- IC50 (second compound 1 µM): < 3.16 nM
- IC50 (second compound 3.16 µM): < 3.16 nM
- IC50 (second compound 10 µM): < 3.16 nM
SMILES: COc1c(OCCCN2CCOCC2)ccc2c3n(c(=NC(=O)c4cnc(N)nc4)nc12)CCN3 + CNC(=O)c1ccc(Nc2nc(OC3CCCC3)c3c(-c4ccc5nc(C)oc5c4)c[nH]c3n2)c(OC)c1
- viability, T/C (second compound 0.0316 µM, first compound 0.00316 µM): 77%
- viability, T/C (second compound 0.0316 µM, first compound 0.01 µM): 53.6%
- viability, T/C (second compound 0.0316 µM, first compound 0.0316 µM): 39.2%
- viability, T/C (second compound 0.0316 µM, first compound 0.1 µM): 37.2%
- viability, T/C (second compound 0.0316 µM, first compound 0.316 µM): 25.1%
- viability, T/C (second compound 0.0316 µM, first compound 1 µM): 13.4%
- viability, T/C (second compound 0.1 µM, first compound 0.00316 µM): 69.9%
- viability, T/C (second compound 0.1 µM, first compound 0.01 µM): 60.6%
- viability, T/C (second compound 0.1 µM, first compound 0.0316 µM): 30.2%
- viability, T/C (second compound 0.1 µM, first compound 0.1 µM): 22.2%
- viability, T/C (second compound 0.1 µM, first compound 0.316 µM): 14.9%
- viability, T/C (second compound 0.1 µM, first compound 1 µM): 10.6%
- viability, T/C (second compound 0.316 µM, first compound 0.00316 µM): 71.4%
- viability, T/C (second compound 0.316 µM, first compound 0.01 µM): 44.6%
- viability, T/C (second compound 0.316 µM, first compound 0.0316 µM): 21.1%
- viability, T/C (second compound 0.316 µM, first compound 0.1 µM): 11.8%
- viability, T/C (second compound 0.316 µM, first compound 0.316 µM): 8.06%
- viability, T/C (second compound 0.316 µM, first compound 1 µM): 3.94%
- viability, T/C (second compound 1 µM, first compound 0.00316 µM): 49.8%
- viability, T/C (second compound 1 µM, first compound 0.01 µM): 30.4%
- viability, T/C (second compound 1 µM, first compound 0.0316 µM): 10.1%
- viability, T/C (second compound 1 µM, first compound 0.1 µM): 4.35%
- viability, T/C (second compound 1 µM, first compound 0.316 µM): 3.7%
- viability, T/C (second compound 1 µM, first compound 1 µM): 2.28%
- viability, T/C (second compound 3.16 µM, first compound 0.00316 µM): 43.2%
- viability, T/C (second compound 3.16 µM, first compound 0.01 µM): 17.7%
- viability, T/C (second compound 3.16 µM, first compound 0.0316 µM): 9.11%
- viability, T/C (second compound 3.16 µM, first compound 0.1 µM): 3.98%
- viability, T/C (second compound 3.16 µM, first compound 0.316 µM): 3.84%
- viability, T/C (second compound 3.16 µM, first compound 1 µM): 2.88%
- viability, T/C (second compound 10 µM, first compound 0.00316 µM): 25.4%
- viability, T/C (second compound 10 µM, first compound 0.01 µM): 15.1%
- viability, T/C (second compound 10 µM, first compound 0.0316 µM): 8.44%
- viability, T/C (second compound 10 µM, first compound 0.1 µM): 4.43%
- viability, T/C (second compound 10 µM, first compound 0.316 µM): 2.95%
- viability, T/C (second compound 10 µM, first compound 1 µM): 2.09%
